Our source for the EC50, CC50 and IC50 values is US10179794B2, “Thieno[3,2-d]pyrimidine, furo[3,2-d]pyrimidine, and pyrrolo[3,2-D]pyrimidines useful for treating respiratory syncitial virus infections” (Gilead Sciences, Inc., priority 2014, dated 2019).

One series relates to RSV strain A2. Briefly: Anti-RSV activity, infectious cytopathic cell protection assay in HEp-2 cells. It counts as cell-based, Respiratory Syncytial Virus (RSV). Particulars: human respiratory syncytial virus. As for the experimental part:
Antiviral activity against RSV is determined using an infectious cytopathic cell protection assay in HEp-2 cells. In this assay, compounds inhibiting viral infection and/or replication produce a cytoprotective effect against the virus-induced cell killing that can be quantified using a cell viability reagent. The techniques used here are novel adaptations of methods described in published literature (Chapman et al., Antimicrob Agents Chemother. 2007, 51 (9):3346-53.)
HEp-2 cells are obtained from ATCC (Manassas, Va.) and maintained in MEM media supplemented with 10% fetal bovine serum and penicillin/streptomycin. Cells are passaged twice a week and kept at subconfluent stage. Commercial stock of RSV strain A2 (Advanced Biotechnologies, Columbia, Md.) is titered before compound testing to determine the appropriate dilution of the virus stock that generates desirable cytopathic effect in HEp-2 cells.
For antiviral tests, HEp-2 cells are grown in large cell culture flasks to near confluency but not fully so. The compounds to be tested are prediluted in DMSO in 384-well compound dilution plates, either in an 8 or 40 sample per plate standardized dose response format. 3-fold serial dilution increments of each test compound are prepared in the plates and test samples are transferred via acoustic transfer apparatus (Echo, Labcyte) at 100 nl per well into cell culture assay 384-well plates. Each compound dilution is transferred in single or quadruplicate samples into dry assay plates, which are stored until assay is ready to go. The positive and negative controls are laid out in opposite on ends of the plate in vertical blocks (1 column).
Subsequently, an infectious mixture is prepared using an appropriate dilution of virus stock previously determined by titration with cells at a density of 50,000/ml and 20 uL/well is added to test plates w/compounds via automation (uFlow, Biotek). Each plate includes negative and positive controls (16 replicates each) to create 0% and 100% virus inhibition standards, respectively. Following the infection with RSV, testing plates are incubated for 4 days in a 37° C. cell culture incubator. After the incubation, a cell viability reagent, Cell TiterGlo (Promega, Madison, Wis.) is added to the assay plates, which are incubated briefly, and a luminescent readout is measured (Envision, Perkin Elmer) in all the assay plates. The RSV-induced cytopathic effect, percentage inhibition, is determined from the levels of remaining cell viability. These numbers are calculated for each tested concentration relative to the 0% and 100% inhibition controls, and the EC50 value for each compound is determined by non-linear regression as a concentration inhibiting the RSV-induced cytopathic effect by 50%. Various potent anti-RSV tool compounds are used as positive controls for antiviral activity.
(In general: Protection from cytopathic effect is a common read-out in antiviral testing.)

The nature of series [1]: Cytotoxicity assay in HEp-2 cells. The class given is cell-based. As to conditions: human, uninfected HEp-2 cells, CellTiter Glo. As to the method: Cytotoxicity of tested compounds is determined in uninfected HEp-2 cells in parallel with the antiviral activity using the cell viability reagent in a similar fashion as described before for other cell types (Cihlar et al., Antimicrob Agents Chemother. 2008,52(2):655-65.). The same protocol as for the determination of antiviral activity is used for the measurement of compound cytotoxicity except that the cells are not infected with RSV. Instead, an uninfected cell mixture at the same density is added at 20 ul/well to plates containing prediluted compounds, also at 100 nl/sample. Assay plates are then incubated for 4 days followed by a cell viability test using the same CellTiter Glo reagent addition and measurement of luminescent readouts. Untreated cell and cells treated at 2 uM puromycin (Sigma, St. Louis, Mo.) serve as 100% and 0% cell viability control, respectively. The percent of cell viability is calculated for each tested compound concentration relative to the 0% and 100% controls and the CC50 value is determined by non-linear regression as a compound concentration reducing the cell viability by 50%.
In general terms: In ATP-based viability assays light output follows the ATP content of the culture.

Series [2] in a line: Cytotoxicity assay in MT-4 cells. It counts as cell-based. Particulars: human, Cell-Titer Glo. As for the experimental part: The MT-4 cell line was obtained from the NIH AIDS Research and Reference Reagent Program (Germantown, Md.) and cultured in RPMI-1640 medium (Irvine Scientific, Santa Ana, Calif., Cat #9160) supplemented with 10% FBS, 100 units/mL penicillin, 100 units/mL streptomycin, and 2 mM L-Glutamine. The MT-4 cells were passaged twice per week to maintain cell densities below 0.6×10^6 cells/mL. Complete RPMI-1640 media containing 100× concentrations of 3-fold serially diluted compound, ranging from 26 nM to 530 μM, were stamped in quadruplicate into black 384-well plates. After compound addition, 2×10^3 MT-4 cells were added to each well using a MicroFlo liquid dispenser (BioTek, Winooski, Vt.) and the cells were cultured for 5 days at 37° C. in a 5% CO2 incubator. Following the incubation the cells were allowed to equilibrate to 25° C. and cell viability was determined by adding 25 μL of Cell-Titer Glo viability reagent. The mixture was incubated for 10 minutes at 25° C., and the luminescence signal was quantified on a Victor Luminescence plate reader. The CC50 value is defined as the concentration of compound that reduces cell viability by 50% as determined by the Cell-Titer Glo signal. The data were analyzed using Pipeline Pilot Plate Data Analytics Collection software (Version 7.0, Accelrys, San Diego, Calif.). CC50 values were calculated from a non-linear regression analysis using a 4-parameter sigmoidal dose-response equation: Y=Bottom+(Top-Bottom)/(1+10^[(LogCC50-X)*HillSlope]) where the Top and Bottom were fixed at 100% and 0% cell viability, respectively. CC50 values were calculated as the average± standard deviation of 3 independent experiments.

In series [3] the target is T1, RSV ribonucleoprotein (RNP) complexes (Human respiratory syncytial virus A, UniProt P28887).
T1 construct: The supernatant (S3) fraction, containing the enriched RSV RNP complexes, was collected; endogenous in cells; host or cells: HEp-2 cells infected with RSV A2; detergent-extracted S3 fraction (crude RNP)
T1 sequence (P28887 whole entry): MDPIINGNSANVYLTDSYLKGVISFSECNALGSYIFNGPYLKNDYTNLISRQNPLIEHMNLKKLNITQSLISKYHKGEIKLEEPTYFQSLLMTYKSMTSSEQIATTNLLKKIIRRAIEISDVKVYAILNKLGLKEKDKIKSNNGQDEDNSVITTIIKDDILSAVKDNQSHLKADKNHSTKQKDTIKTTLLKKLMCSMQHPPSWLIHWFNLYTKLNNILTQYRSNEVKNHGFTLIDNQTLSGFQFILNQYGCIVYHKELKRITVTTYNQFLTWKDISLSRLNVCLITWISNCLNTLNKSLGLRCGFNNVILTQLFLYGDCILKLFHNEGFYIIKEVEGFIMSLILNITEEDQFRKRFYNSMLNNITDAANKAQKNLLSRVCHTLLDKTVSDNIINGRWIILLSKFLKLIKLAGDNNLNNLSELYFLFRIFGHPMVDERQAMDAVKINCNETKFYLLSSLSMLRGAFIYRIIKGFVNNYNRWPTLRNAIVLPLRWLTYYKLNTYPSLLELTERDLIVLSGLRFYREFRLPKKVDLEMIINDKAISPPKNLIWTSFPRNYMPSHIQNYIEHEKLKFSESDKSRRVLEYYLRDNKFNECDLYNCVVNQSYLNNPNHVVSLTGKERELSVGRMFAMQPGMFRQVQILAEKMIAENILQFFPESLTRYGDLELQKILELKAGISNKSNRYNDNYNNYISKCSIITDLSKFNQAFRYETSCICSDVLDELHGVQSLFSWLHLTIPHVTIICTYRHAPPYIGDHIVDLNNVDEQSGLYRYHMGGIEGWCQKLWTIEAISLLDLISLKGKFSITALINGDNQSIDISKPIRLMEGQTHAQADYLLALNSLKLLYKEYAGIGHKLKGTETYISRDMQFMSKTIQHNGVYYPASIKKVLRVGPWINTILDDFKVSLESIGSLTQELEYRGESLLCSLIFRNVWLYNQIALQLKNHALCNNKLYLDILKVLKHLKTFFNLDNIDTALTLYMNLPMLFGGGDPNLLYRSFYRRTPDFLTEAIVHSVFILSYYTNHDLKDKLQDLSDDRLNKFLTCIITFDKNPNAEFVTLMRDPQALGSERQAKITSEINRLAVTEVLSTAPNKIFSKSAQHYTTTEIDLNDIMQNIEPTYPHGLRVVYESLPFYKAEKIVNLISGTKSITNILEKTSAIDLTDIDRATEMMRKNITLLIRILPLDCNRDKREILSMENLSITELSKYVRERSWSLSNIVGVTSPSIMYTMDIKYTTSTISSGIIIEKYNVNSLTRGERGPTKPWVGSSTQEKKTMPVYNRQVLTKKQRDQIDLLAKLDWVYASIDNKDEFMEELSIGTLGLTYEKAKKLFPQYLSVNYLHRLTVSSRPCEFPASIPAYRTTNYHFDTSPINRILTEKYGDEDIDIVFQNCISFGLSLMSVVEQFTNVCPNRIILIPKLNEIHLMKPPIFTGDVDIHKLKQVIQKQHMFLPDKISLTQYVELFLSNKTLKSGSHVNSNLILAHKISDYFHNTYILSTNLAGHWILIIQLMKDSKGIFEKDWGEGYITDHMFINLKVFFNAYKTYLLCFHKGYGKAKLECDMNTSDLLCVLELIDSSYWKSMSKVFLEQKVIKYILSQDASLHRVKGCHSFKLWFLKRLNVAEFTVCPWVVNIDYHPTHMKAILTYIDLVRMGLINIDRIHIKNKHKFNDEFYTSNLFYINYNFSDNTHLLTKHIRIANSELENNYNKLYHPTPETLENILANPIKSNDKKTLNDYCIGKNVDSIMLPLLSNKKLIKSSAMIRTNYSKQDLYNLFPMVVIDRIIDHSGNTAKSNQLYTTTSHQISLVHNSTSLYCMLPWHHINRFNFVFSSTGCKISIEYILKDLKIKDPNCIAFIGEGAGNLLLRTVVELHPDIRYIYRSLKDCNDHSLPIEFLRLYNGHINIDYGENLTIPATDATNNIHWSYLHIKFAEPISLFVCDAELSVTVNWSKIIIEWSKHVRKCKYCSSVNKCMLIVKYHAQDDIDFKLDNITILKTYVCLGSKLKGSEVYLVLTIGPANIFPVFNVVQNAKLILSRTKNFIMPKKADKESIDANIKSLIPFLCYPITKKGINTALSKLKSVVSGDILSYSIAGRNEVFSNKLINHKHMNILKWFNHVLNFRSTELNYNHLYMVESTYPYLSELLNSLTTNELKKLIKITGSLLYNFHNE
T1 sequence (P03421 whole entry, further chain): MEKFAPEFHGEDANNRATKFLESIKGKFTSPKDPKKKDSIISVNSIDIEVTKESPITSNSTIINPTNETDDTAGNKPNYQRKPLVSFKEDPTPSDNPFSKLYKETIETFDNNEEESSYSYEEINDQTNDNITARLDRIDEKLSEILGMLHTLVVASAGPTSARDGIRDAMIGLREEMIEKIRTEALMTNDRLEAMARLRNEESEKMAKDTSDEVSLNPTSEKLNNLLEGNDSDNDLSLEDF
Kind of series: RSV RNP assay (inhibition of RSV RNP transcription). It counts as biochemical, RSV A2. Particulars: crude RSV RNP complexes, 90 minute incubation at 30° C., total radiolabled transcripts reduced by 50%. As for the experimental part: RSV ribonucleoprotein (RNP) complexes were prepared from a method modified from Mason et al (1). HEp-2 cells were plated at a density of 7.1×10^4 cells/cm^2 in MEM+10% fetal bovine serum (FBS) and allowed to attach overnight at 37° C. (5% CO2). Following attachment, the cells were infected with RSV A2 (MOI=5) in 35 mL MEM+2% FBS. At 20 hours post-infection, the media was replaced with MEM+2% FBS supplemented with 2 m/mL actinomycin D and returned to 37° C. for one hour. The cells were then washed once with PBS and treated with 35 mL of PBS+250 m/mL lyso-lecithin for one minute, after which all liquid was aspirated. The cells were harvested by scrapping them into 1.2 mL of buffer A [50 mM TRIS acetate (pH 8.0), 100 mM potassium acetate, 1 mM DTT and 2 m/mL actinomycin D] and lysed by repeated passage through an 18 gauge needle (10 times). The cell lysate was placed in ice for 10 minutes and then centrifuged at 2400 g for 10 minutes at 4° C. The supernatant (S1) was removed and the pellet (P1) was disrupted in 600 uL of Buffer B [10 mM TRIS acetate (pH 8.0), 10 mM potassium acetate and 1.5 mM MgCl2] supplemented with 1% Triton X-100 by repeated passage through an 18 gauge needle (10 times). The resuspended pellet was placed in ice for 10 minutes and then centrifuged at 2400 g for 10 minutes at 4° C. The supernatant (S2) was removed and the pellet (P2) was disrupted in 600 uL of Buffer B supplemented with 0.5% deoxycholate and 0.1% Tween 40. The resuspended pellet was placed in ice for 10 minutes and then centrifuged at 2400 g for 10 minutes at 4° C. The supernatant (S3) fraction, containing the enriched RSV RNP complexes, was collected and the protein concentration determined by UV absorbance at 280 nm. Aliquoted RSV RNP S3 fractions were stored at −80° C.
Transcription reactions contained 25 μg of crude RSV RNP complexes in 30 μL of reaction buffer [50 mM TRIS-acetate (pH 8.0), 120 mM potassium acetate, 5% glycerol, 4.5 mM MgCl2, 3 mM DTT, 2 mM ethyleneglycol-bis(2-aminoethylether)-tetraacetic acid (EGTA), 50 μg/mL BSA, 2.5 U RNasin (Promega), ATP, GTP, UTP, CTP and 1.5 uCi [α-^32P] NTP (3000 Ci/mmol)]. The radiolabled nucleotide used in the transcription assay was selected to match the nucleotide analog being evaluated for inhibition of RSV RNP transcription. Cold, competitive NTP was added at a final concentration of one-half its Km (ATP=20 μM, GTP=12.5 μM, UTP=6 μM and CTP=2 μM). The three remaining nucleotides were added at a final concentration of 100 μM.
To determine whether nucleotide analogs inhibited RSV RNP transcription, compounds were added using a 6 step serial dilution in 5-fold increments. Following a 90 minute incubation at 30° C., the RNP reactions were stopped with 350 μL of Qiagen RLT lysis buffer and the RNA was purified using a Qiagen RNeasy 96 kit. […]

The mark [4] stands for this setting: 96 h, RSV A2-induced cytopathic effect in HEp-2 cells, 4 days, Cell TiterGlo, read-out: EC50.

The pEC50 is the negative decadic logarithm of the EC50, by convention in mol/L. What is called CC50 is the concentration at which the toxic effect on the cells reaches its halfway point. High values mean better tolerance by the cells, low ones harm at low concentration. Usually pIC50 stands for the IC50 on a negative log10 scale, so that one unit is a factor of ten.

SMILES strings stand for the structures. pEC50, pIC50: −log10 of the molar value. Like-named read-outs stand apart in the source and are kept apart here. Where only a bound is given, the exact number is not on record here.

Consider `[N-]=[N+]=N[C@]1(CO)O[C@@H](c2csc3c(N)ncnc23)[C@H](F)[C@@H]1O` [Example 1, (2R,3R,4R,5S)-5-(4-aminothieno[3,2-d]pyrimidin-7-yl)-2-azido-4-fluoro-2-(hydroxymethyl)-tetrahydrofuran-3-ol], for which the pEC50 in the series on RSV strain A2 (setting [4]) is 6.68. This compound also had a CC50 at 4 days in series [1] of more than 100 µM. The compound further gave a CC50 at 5 days in series [2] of 59 µM.
With `N#C[C@]1(CO)O[C@@H](c2csc3c(N)ncnc23)[C@H](O)[C@@H]1O` [Example 3, (2R,3S,4R,5S)-5-(4-aminothieno[3,2-d]pyrimidin-7-yl)-3,4-dihydroxy-2-(hydroxymelthyl)tetrahydrofuran-2-carbonitrile], the pEC50 in the series on RSV strain A2 (setting [4]) is 5.30. For the same compound, the CC50 at 4 days in series [1] was more than 50 µM. Further, the CC50 at 5 days in series [2] was more than 57 µM.
For the compound `[N-]=[N+]=N[C@]1(CO)O[C@@H](c2csc3c(N)ncnc23)[C@H](Cl)[C@@H]1O` [Example 4, (2R,3R,4R,5S)-5-(4-Aminothieno[3,2-d]pyrimidin-7-yl)-2-azido-4-chloro-2-(hydroxymethyl)tetrahydrofuran-3-ol], the negative logarithm of the EC50 (pEC50) in the series with RSV strain A2 (setting [4]) was less than 4.01. For the same compound, the CC50 at 4 days in series [1] was more than 93 µM. The compound further displayed a cytotoxic concentration (CC50) at 5 days in series [2] of 93 µM.
Compound `CCOC(=O)[C@H](C)NP(=O)(OC[C@@]1(N=[N+]=[N-])O[C@@H](c2csc3c(N)ncnc23)[C@H](F)[C@@H]1O)Oc1ccccc1` (stereo partly drawn) [Example PD1, (2S)-ethyl 2-(((((2R,3R,4R,5S)-5-(4-aminothieno[3,2-d]pyrimidin-7-yl)-2-azido-4-fluoro-3-hydroxytetrahydrofuran-2-yl)methoxy)(phenoxy)phosphoryl)amino)propanoate] had a pEC50 in the series on RSV strain A2 (HEp-2, 96 h) of 6.25. In addition, the half-maximal cytotoxic concentration (CC50) at 4 days in series [1] is more than 50 µM. In addition, the half-maximal cytotoxic concentration (CC50) at 5 days in series [2] was found to be 10.4 µM.
`[N-]=[N+]=N[C@]1(COP(=O)(O)OP(=O)(O)OP(=O)(O)O)O[C@@H](c2csc3c(N)ncnc23)[C@H](F)[C@@H]1O` [Example TP1, ((2R,3R,4R,5S)-5-(4-aminothieno[3,2-d]pyrimidin-7-yl)-2-azido-4-fluoro-3-hydroxytetrahydrofuran-2-yl)methyl tetrahydrogen triphosphate] had a negative-log IC50 (pIC50) in series [3] of 7.12.
In series [3], `N#C[C@]1(COP(=O)(O)OP(=O)(O)OP(=O)(O)O)O[C@@H](c2csc3c(N)ncnc23)[C@H](F)[C@@H]1O` [Example TP2, ((2R,3R,4R,5S)-5-(4-aminothieno[3,2-d]pyrimidin-7-yl)-2-cyano-4-fluoro-3-hydroxytetrahydrofuran-2-yl)methyl tetrahydrogen triphosphate] gave a pIC50 of 7.38.
In the case of `N#C[C@]1(COP(=O)(O)OP(=O)(O)OP(=O)(O)O)O[C@@H](c2csc3c(N)ncnc23)[C@H](O)[C@@H]1O` [Example TP3, ((2R,3S,4R,5S)-5-(4-aminothieno[3,2-d]pyrimidin-7-yl)-2-cyano-3,4-dihydroxytetrahydrofuran-2-yl)methyl tetrahydrogen triphosphate], the negative-log IC50 (pIC50) in series [3] was 7.44.
The same measure, in the same setting: then `[N-]=[N+]=N[C@]1(COP(=O)(O)OP(=O)(O)OP(=O)(O)O)O[C@@H](c2csc3c(N)ncnc23)[C@H](Cl)[C@@H]1O` [Example TP4, ((2R,3R,4R,5S)-5-(4-aminothieno[3,2-d]pyrimidin-7-yl)-2-azido-4-chloro-3-hydroxytetrahydrofuran-2-yl)methyl tetrahydrogen triphosphate], with 6.70.
